Consider 17 molecules from ChEMBL document CHEMBL4196131 (J Med Chem, 2018).

What is called inhibition is the share of the control response that was lost under treatment. One may read the pIC50 as −log10 of the IC50, conventionally taken in molar units. One may read the pEC50 as −log10 of the EC50, conventionally taken in molar units.

For one test, the species on record is Mus musculus. Kind of test: Inhibition of NFkappaB in mouse RAW 264.7 cells assessed as reduction in LPS induced NO production at 10 uM after 24 hrs by Griess assay relative to control. The format is cell-based. Background: The Griess reaction detects nitrite, a stable product of nitric oxide.
Test [1] addresses T1, Estrogen receptor (Homo sapiens) (UniProt P03372).
T1 sequence (whole entry): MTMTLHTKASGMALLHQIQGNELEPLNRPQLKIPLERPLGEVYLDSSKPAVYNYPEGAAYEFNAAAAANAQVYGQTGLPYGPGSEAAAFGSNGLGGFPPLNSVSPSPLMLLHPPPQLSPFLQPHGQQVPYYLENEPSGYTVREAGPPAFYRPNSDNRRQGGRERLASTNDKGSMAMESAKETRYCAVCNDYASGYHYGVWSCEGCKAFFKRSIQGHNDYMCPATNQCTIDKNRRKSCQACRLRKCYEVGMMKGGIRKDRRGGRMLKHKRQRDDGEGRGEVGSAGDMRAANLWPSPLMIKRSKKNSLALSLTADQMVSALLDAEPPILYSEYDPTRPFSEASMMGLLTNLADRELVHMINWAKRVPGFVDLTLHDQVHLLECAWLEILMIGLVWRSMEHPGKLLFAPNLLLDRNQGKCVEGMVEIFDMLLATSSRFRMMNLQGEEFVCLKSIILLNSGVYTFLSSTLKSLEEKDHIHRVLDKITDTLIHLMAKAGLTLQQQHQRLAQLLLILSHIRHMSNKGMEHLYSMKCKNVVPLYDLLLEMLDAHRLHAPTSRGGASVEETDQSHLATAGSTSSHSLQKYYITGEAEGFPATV
Kind of test: Antagonist activity at human ERalpha expressed in HEK293T cells after 24 hrs by ERE-based dual luciferase reporter gene assay relative to E2. It is filed as cell-based.

Another test has as its target T2, Estrogen receptor (Homo sapiens, UniProt P03372).
T2 sequence (P03372 whole entry): T1 sequence (whole entry)
Kind of test: Antagonist activity at human ERalpha expressed in HEK293T cells after 24 hrs by ERE-based dual luciferase reporter gene assay. It is filed as cell-based. In general terms: A reporter such as luciferase makes a cellular process visible.

For test [2], the target named is T1, Estrogen receptor (Homo sapiens). Kind of test: Agonist activity at human ERalpha expressed in HEK293T cells after 24 hrs by ERE-based dual luciferase reporter gene assay relative to E2. It is filed as cell-based.
For a further test, the system named is MCF7. Kind of test: cells. The conditions noted are these: Homo sapiens, MCF7, 72 h.
Test [3] has as its target T3, Estrogen receptor beta (Homo sapiens, UniProt Q92731). Put plainly: Agonist activity at human ERbeta expressed in HEK293T cells after 24 hrs by ERE-based dual luciferase reporter gene assay relative to E2. It is filed as cell-based.
Test [4] addresses T3, Estrogen receptor beta. Put plainly: Antagonist activity at human ERbeta expressed in HEK293T cells after 24 hrs by ERE-based dual luciferase reporter gene assay. It is filed as cell-based.
Test [5] concerns the target T3, Estrogen receptor beta. Kind of test: Antagonist activity at human ERbeta expressed in HEK293T cells after 24 hrs by ERE-based dual luciferase reporter gene assay relative to E2. Also on record: concentration or dose not given beside the values. The format is cell-based.
Test [6] can be described thus: Inhibition of NFkappaB in mouse RAW 264.7 cells assessed as reduction in LPS induced NO production after 24 hrs by Griess assay. It is filed as cell-based. The conditions noted are these: RAW264.7, 24 h.
The target of test [7] is T3, Estrogen receptor beta. Put plainly: Agonist activity at human ERbeta expressed in HEK293T cells after 24 hrs by ERE-based dual luciferase reporter gene assay. The format is cell-based.

pEC50, pIC50: −log10 of the molar value.

T3 sequence (Q92731 whole entry): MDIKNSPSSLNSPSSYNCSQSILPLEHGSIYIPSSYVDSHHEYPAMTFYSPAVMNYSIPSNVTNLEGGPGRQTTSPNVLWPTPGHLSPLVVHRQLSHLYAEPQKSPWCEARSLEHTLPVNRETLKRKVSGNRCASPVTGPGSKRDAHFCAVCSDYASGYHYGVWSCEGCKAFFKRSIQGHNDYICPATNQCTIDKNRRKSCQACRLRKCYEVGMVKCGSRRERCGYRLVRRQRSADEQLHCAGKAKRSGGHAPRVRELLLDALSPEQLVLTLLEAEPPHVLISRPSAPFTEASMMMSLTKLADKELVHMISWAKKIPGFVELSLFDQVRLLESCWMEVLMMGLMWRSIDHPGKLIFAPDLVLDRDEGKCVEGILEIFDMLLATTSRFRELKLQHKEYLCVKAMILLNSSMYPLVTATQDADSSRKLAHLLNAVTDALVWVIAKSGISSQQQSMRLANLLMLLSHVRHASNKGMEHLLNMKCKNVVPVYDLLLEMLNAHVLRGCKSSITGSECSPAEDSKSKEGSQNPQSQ

With `O=S(=O)(Oc1ccc(Br)cc1)C1CC2OC1C(c1ccc(/C=C/c3cc(O)cc(O)c3)cc1)=C2c1ccc(O)cc1` (centres undefined), in the test listed under Mus musculus, the inhibition was 22%. Further, the Efficacy in test [1] is 15%; in [2], -9%; at Estrogen receptor beta [3] it was 10%; on Estrogen receptor beta [5] it was 43%. In addition, the pIC50 at Estrogen receptor was 7.21; with MCF7, 4.77; against Estrogen receptor beta [4], 5.60; in test [6], 4.78.

On to `O=S(=O)(Oc1cccc(O)c1)C1CC2OC1C(c1ccc(/C=C/c3cc(O)cc(O)c3)cc1)=C2c1ccc(O)cc1` (centres undefined), for which, in the test filed under Mus musculus, the inhibition stood at 12.3%. Further, the Efficacy in test [1] is 17%; in [2], 5%; on Estrogen receptor beta [3], 17%; on Estrogen receptor beta [5], 106%. In addition, the figures for the pIC50 (against Estrogen receptor; in the test with MCF7; in [6]) were 5.22, 4.64 and less than 4.00, respectively.

Take `COc1cccc(OS(=O)(=O)C2CC3OC2C(c2ccc(/C=C/c4cc(O)cc(O)c4)cc2)=C3c2ccc(O)cc2)c1` (centres undefined): the inhibition in the test listed under Mus musculus worked out at 42.3%. Moreover, the Efficacy was determined as 36% in test [1], 55% in test [2], 52% on Estrogen receptor beta [3] and 102% on Estrogen receptor beta [5]. For the same molecule, the pIC50 at Estrogen receptor was 7.32; with MCF7, 4.98; in test [6] it was 4.95. At Estrogen receptor beta [7], the pEC50 is 8.52.

In the case of `COc1cc(/C=C/c2ccc(OS(=O)(=O)[C@H]3C[C@H]4O[C@@H]3C(c3ccc(O)cc3)=C4c3ccc(O)cc3)cc2)cc(OC)c1`, the Efficacy in test [1] was found to be 72%. The values for the pIC50 (at Estrogen receptor; in the test with MCF7; in test [6]) were 7.57, 4.75 and 6.32, respectively.

Take `O=S(=O)(Oc1ccccc1)C1CC2OC1C(c1ccc(/C=C/c3cc(O)cc(O)c3)cc1)=C2c1ccc(O)cc1` (centres undefined): the inhibition in the test listed under Mus musculus worked out at 70.9%. Further, the Efficacy in test [1] turned out to be 4%; in test [2], 29%; on Estrogen receptor beta [3] it was 37%; on Estrogen receptor beta [5], 76%. Also, the pIC50 on Estrogen receptor is 6.37; in the test on MCF7, 4.70; in test [6], 5.22. The molecule also had a pEC50 on Estrogen receptor beta [7] of 6.18.

On to `CC/C(=C(\c1ccc(O)cc1)c1ccc(OCCN(C)C)cc1)c1ccccc1` [AFIMOXIFENE], for which, in the test filed under Mus musculus, the inhibition turned out to be 21.5%. Moreover, the pIC50 with MCF7 is 5.02; in test [6], less than 4.00.

On to `O=S(=O)(Oc1cccc2ccccc12)C1CC2OC1C(c1ccc(/C=C/c3cc(O)cc(O)c3)cc1)=C2c1ccc(O)cc1` (centres undefined), for which, in the test filed under Mus musculus, the inhibition came out at 44.4%. Further, the Efficacy in [1] is -4%; in [2] it was -10%; on Estrogen receptor beta [3], 65%; on Estrogen receptor beta [5], 71%. For the same molecule, the pIC50 is 7.31 at Estrogen receptor, 4.96 in the test on MCF7 and 5.48 in test [6]. In addition, the pEC50 at Estrogen receptor beta [7] was 6.65.

Consider `O=S(=O)(Oc1cccc(Cl)c1)C1CC2OC1C(c1ccc(/C=C/c3cc(O)cc(O)c3)cc1)=C2c1ccc(O)cc1` (centres undefined), for which the inhibition in the test filed under Mus musculus came out at 62.1%. Further, the Efficacy in test [1] was found to be 4%; in test [2] it was 16%; at Estrogen receptor beta [3] it was 60%; on Estrogen receptor beta [5] it was 91%. The pIC50 at Estrogen receptor is 6.03; in the test on MCF7 it was 4.89; in test [6], 5.67. This molecule also gave a pEC50 on Estrogen receptor beta [7] of 8.70.

As for `Cc1cccc(OS(=O)(=O)C2CC3OC2C(c2ccc(/C=C/c4cc(O)cc(O)c4)cc2)=C3c2ccc(O)cc2)c1` (centres undefined), the inhibition in the test filed under Mus musculus amounted to 68.4%. The Efficacy in test [1] is 2%; in [2], 22%; on Estrogen receptor beta [3], -3%; at Estrogen receptor beta [5], 46%. Moreover, the pIC50 at Estrogen receptor is 6.02; in the test on MCF7 it was 4.79; against Estrogen receptor beta [4], 5.51; in test [6], 5.62.

Consider `O=S(=O)(Oc1ccccc1)C1CC2OC1C(c1ccc(/C=C/c3ccccc3)cc1)=C2c1ccc(O)cc1` (centres undefined), for which, in the test listed under Mus musculus, the inhibition turned out to be 40.4%. The Efficacy came to 34% in test [1], 13% in [2], 48% at Estrogen receptor beta [3] and 83% at Estrogen receptor beta [5]. Further, the pIC50 on Estrogen receptor is 5.99; in the test with MCF7, 4.60; in test [6] it was 5.01. For the same molecule, the pEC50 at Estrogen receptor beta [7] was 5.56.

As for `O=S(=O)(Oc1ccc(/C=C/c2cc(O)cc(O)c2)cc1)C1CC2OC1C(c1ccc(O)cc1)=C2c1ccc(O)cc1` (centres undefined), the inhibition in the test listed under Mus musculus is 81%. The Efficacy was 7% in test [1], -9% in test [2], 51% on Estrogen receptor beta [3] and 99% at Estrogen receptor beta [5]. Besides, the pIC50 against Estrogen receptor was 7.72; in the test with MCF7 it was 4.98; in test [6], 6.03. On Estrogen receptor beta [7], this molecule had a pEC50 of 6.71.

Turning to `O=S(=O)(Oc1ccc(/C=C/c2ccccc2)cc1)C1CC2OC1C(c1ccc(O)cc1)=C2c1ccc(O)cc1` (centres undefined), the inhibition in the test filed under Mus musculus came to 72.4%. The Efficacy in test [1] is 54%; in test [2], 6%; on Estrogen receptor beta [3], 25%; at Estrogen receptor beta [5], 74%. The negative logarithm of the IC50 (pIC50) on Estrogen receptor is 6.83; with MCF7 it was 5.08; in test [6], 5.65. On Estrogen receptor beta [7], the pEC50 was 7.51.

Take `COc1cc(/C=C/c2ccc(OS(=O)(=O)[C@@H]3C[C@@H]4O[C@H]3C(c3ccc(O)cc3)=C4c3ccc(O)cc3)cc2)cc(OC)c1`: the Efficacy in [1] is 11%. The pIC50 is 8.52 on Estrogen receptor, 5.64 in the test on MCF7 and 6.52 in [6].

Turning to `O=S(=O)(Oc1ccc(Cl)cc1)C1CC2OC1C(c1ccc(/C=C/c3cc(O)cc(O)c3)cc1)=C2c1ccc(O)cc1` (centres undefined), the inhibition in the test listed under Mus musculus was found to be 62.1%. Further, the Efficacy in [1] was 11%; in test [2], -5%; on Estrogen receptor beta [3], 7%; on Estrogen receptor beta [5] it was 33%. Besides, the pIC50 against Estrogen receptor was 7.21; in the test with MCF7, 4.75; against Estrogen receptor beta [4], 5.99; in test [6] it was 5.19.

Consider `O=S(=O)(Oc1ccc(O)cc1)C1CC2OC1C(c1ccc(/C=C/c3cc(O)cc(O)c3)cc1)=C2c1ccc(O)cc1` (centres undefined), for which the inhibition in the test listed under Mus musculus was found to be 41%. Besides, the Efficacy came to 8% in test [1], 12% in test [2], 51% on Estrogen receptor beta [3] and 88% at Estrogen receptor beta [5]. Besides, the values for the pIC50 on Estrogen receptor and in the test on MCF7 were 7.27 and 4.85, respectively. Also, on Estrogen receptor beta [7], the pEC50 is 6.45.

For `O=S(=O)(Oc1ccc(F)cc1)C1CC2OC1C(c1ccc(/C=C/c3cc(O)cc(O)c3)cc1)=C2c1ccc(O)cc1` (centres undefined), the inhibition in the test filed under Mus musculus was determined as 71.9%. The Efficacy in [1] was 7%; in test [2] it was 16%; on Estrogen receptor beta [3], 45%; at Estrogen receptor beta [5], 98%. In addition, the results for the negative-log IC50 (pIC50) (against Estrogen receptor; with MCF7; in test [6]) were 8.30, 4.88 and 5.05, respectively. In addition, at Estrogen receptor beta [7], the pEC50 was 6.56.

Turning to `COc1cc(/C=C/c2cccc(OS(=O)(=O)C3CC4OC3C(c3ccc(O)cc3)=C4c3ccc(O)cc3)c2)cc(OC)c1` (centres undefined), in the test filed under Mus musculus, the inhibition came to 55.1%. Moreover, the Efficacy in [1] amounted to 47%; in test [2], 13%; at Estrogen receptor beta [3] it was 47%; on Estrogen receptor beta [5], 86%. In addition, the pIC50 against Estrogen receptor was 6.13; in the test on MCF7, 4.94; in test [6] it was 5.20.
